Experimental data: ChEMBL document CHEMBL1201862, “PubChem BioAssay data set” (2004)
Several values for one entry are separate records, joined by “and”; a condition that tells them apart may be missing. Equal values may be shown once. Activity calls are given as the source filed them. Cut-off read from the data, not from the text of the source, for most assays here: actives have a measured EC50 and inactives only a lower limit.

Tests used:
[1] = target: T1, Heat shock factor protein 1 (Mus musculus, UniProt P38532); assay: inhibition of MG132-induced HSE-luciferase signal, confirmation, cell-based, NIH3T3, luminescence, dose retest (AID 2382); format: functional;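 note: NIH3T3 fibroblasts with HSF1-driven luciferase reporter stressed by proteasome inhibitor MG132; luminescence from HSF1-driven luciferase expression after 8 hours of MG132 stress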
T1 sequence (P38532 whole entry): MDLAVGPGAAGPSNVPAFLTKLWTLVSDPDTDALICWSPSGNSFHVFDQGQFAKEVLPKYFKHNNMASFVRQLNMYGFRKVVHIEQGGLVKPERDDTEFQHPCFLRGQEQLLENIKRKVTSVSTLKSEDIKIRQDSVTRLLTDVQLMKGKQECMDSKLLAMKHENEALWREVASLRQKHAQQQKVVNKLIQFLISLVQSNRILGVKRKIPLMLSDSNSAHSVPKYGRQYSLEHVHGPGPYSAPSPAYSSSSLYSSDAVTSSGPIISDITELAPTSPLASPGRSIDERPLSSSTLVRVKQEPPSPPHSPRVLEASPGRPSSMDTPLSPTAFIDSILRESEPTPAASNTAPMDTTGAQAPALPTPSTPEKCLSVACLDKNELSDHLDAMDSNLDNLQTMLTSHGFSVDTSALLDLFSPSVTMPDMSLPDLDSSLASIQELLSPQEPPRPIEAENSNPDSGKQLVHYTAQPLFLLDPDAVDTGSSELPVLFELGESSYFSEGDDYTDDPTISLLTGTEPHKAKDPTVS

Cytochrome P450 3A4 = Cytochrome P450 3A4 (Homo sapiens, UniProt P08684);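 note: CYP3A4 tested as one member of a cytochrome P450 panel screen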
[2] = inhibitors of intracellular T. cruzi replication, confirmation, NIH3T3 host cells, beta-gal luminescence (AID 2044); format: functional, cell-based;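 note: intracellular parasites grown in NIH/3T3 mouse fibroblasts as host cells; luminescent beta-galactosidase reporter signal from transgenic T. cruzi replicating inside host cells; inhibitors lower the luminescence signal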
[3] = cytotoxicity toward NIH3T3 fibroblasts, dose response, counter-screen, cell-based, ATP luminescence, mouse fibroblasts (AID 2010); format: functional;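 note: cells exposed to compound for about 90 hours before reading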
[4] = test system: Streptococcus sp. 'group A'; assay: growth inhibition of control SK(-) GAS strain, dose response, counter-screen for streptokinase expression inhibitor project, luminescence, kanamycin, BacTiterGlo, confirmation (AID 1900); format: functional, organism-based
Streptokinase A = target: T2, Streptokinase A (Streptococcus pyogenes serotype M1, UniProt P10520); assay: S. pyogenes streptokinase expression inhibitors, potency, dose response, plasminogen activation absorbance, OD405 (AID 1914); format: functional, Streptococcus pyogenes M1 GAS;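 note: secreted streptokinase activity via plasminogen activation per viability signal from cell pellet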
T2 sequence (P10520 whole entry): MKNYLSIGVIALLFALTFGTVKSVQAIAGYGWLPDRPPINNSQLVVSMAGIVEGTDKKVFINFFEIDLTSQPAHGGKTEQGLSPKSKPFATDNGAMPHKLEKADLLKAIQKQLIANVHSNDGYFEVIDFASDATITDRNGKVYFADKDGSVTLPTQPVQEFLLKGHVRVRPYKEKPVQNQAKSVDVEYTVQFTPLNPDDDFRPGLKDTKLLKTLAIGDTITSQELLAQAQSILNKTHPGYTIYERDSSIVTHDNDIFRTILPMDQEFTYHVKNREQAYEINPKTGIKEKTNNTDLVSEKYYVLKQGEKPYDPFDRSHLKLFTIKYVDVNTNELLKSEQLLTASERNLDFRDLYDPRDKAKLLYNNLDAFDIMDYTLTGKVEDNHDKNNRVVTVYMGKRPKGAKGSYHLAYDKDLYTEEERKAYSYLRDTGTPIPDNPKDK

Streptococcus = assay: Group A Streptococcus viability loss, dose response, counter-screen for streptokinase expression inhibitor project, luminescence, BacTiterGlo (AID 1915); format: functional, organism-based;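 note: potency for reduction of bacterial viability or growth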
INS1 = assay: beta cell apoptosis inhibitors, cytokine rescue, dose response, luminescence, retest (AID 449756); format: functional, cell-based; conditions: Rattus norvegicus;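 note: cell death triggered by IL-1 beta plus TNF-alpha plus IFN-gamma mixture; protective hits raise ATP signal compared with cytokine alone wells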

Sequence of Cytochrome P450 3A4 (P08684 whole entry): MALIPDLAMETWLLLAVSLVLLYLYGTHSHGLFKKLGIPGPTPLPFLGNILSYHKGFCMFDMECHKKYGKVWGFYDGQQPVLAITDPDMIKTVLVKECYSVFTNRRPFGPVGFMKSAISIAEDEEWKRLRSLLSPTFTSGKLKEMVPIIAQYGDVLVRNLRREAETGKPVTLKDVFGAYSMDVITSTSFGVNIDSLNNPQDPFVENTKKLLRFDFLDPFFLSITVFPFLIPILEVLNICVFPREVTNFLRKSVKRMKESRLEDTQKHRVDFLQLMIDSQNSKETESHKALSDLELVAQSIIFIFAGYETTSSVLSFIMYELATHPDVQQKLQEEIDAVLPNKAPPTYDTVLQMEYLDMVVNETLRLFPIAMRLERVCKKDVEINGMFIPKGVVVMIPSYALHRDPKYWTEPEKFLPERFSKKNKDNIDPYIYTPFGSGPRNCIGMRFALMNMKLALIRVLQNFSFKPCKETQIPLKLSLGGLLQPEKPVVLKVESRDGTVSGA

With `CCCCn1c(SCC(=O)NCc2ccco2)nc2c(sc3ccccc32)c1=O` the EC50 [1] was > 195 µM (not active).

For `c1ccc(/C(=N/Nc2nc3ccccc3s2)c2ccccn2)cc1`, the AC50 (Cytochrome P450 3A4) was 3.98 µM (inconclusive).

In the case of `CCOC(=O)N1CCN(CC(O)COCCC23CC4CC(CC(C4)C2)C3)CC1` (stereo not drawn), the EC50 [2] was 1.16 µM (active) and the EC50 [3] was > 30 µM (not active).

In the case of `COc1ccc2[nH]cc(CCNc3ncnc4ccc(-c5ccccc5OC)cc34)c2c1`, the AC50 (Cytochrome P450 3A4) was 0.794 µM (inconclusive).

For `CCOP(=O)(OCC)c1nc(-c2cccc3ccccc23)oc1NCc1ccc(OC)cc1`, the EC50 [2] was 2.45 µM (active) and the EC50 [3] was > 60 µM (not active).

With `COc1ccc(OC)c(C2/C(=C(\O)c3ccccc3)C(C)=Nc3nc4ccccc4n32)c1` (stereo not drawn) the EC50 [2] was 1.51 µM (active) and the EC50 [3] was > 60 µM (not active).

With `CCc1c(C)nc2cc(-c3ccc(OC)c(OC)c3)nn2c1N1CCC(C)CC1` the EC50 [4] was 5.05 µM (active), the EC50 (Streptokinase A) was 16.6 µM (active) and the EC50 (Streptococcus) was 14.7 µM (active).

With `CCOC(=O)CSc1ccc(C(=O)NCCCN2CCOCC2)cc1[N+](=O)[O-]` the EC50 [1] was > 195 µM (not active).

For `CCCC(=O)NC(N=C(S)Nc1ccc(N=Nc2ccccc2)cc1)C(Cl)(Cl)Cl` (stereo not drawn), the AC50 (INS1) was 5.34 µM (active).

For `Cc1cc(/C=N/N2CCN(C)CC2)c(C)n1-c1ccccc1F`, the EC50 [2] was 1.81 µM (active) and the EC50 [3] was > 60 µM (not active).

In the case of `Cc1c(-c2ccccc2)[n+]([O-])c2c([n+]1[O-])CCC2`, the EC50 [1] was > 195 µM (not active).

In the case of `COc1ccccc1C(=O)NCCC(=O)NNC(=O)Cn1ccc(C(F)(F)F)n1`, the EC50 [1] was > 195 µM (not active).

In the case of `Cc1c(C(=O)NCc2ccc3c(c2)OCO3)sc2nc(-c3ccccc3)cn12`, the EC50 [1] was > 195 µM (not active).

For `Cc1cc(C)cc(N(C(=O)Cc2cccs2)C(C(=O)NC2CCCCC2)c2ccccn2)c1` (stereo not drawn), the AC50 (Cytochrome P450 3A4) was 0.891 µM (inconclusive).

In the case of `O=C(CN1CC=C(c2ccccc2)CC1)NC(=O)NCc1ccccc1`, the EC50 [1] was > 195 µM (not active).

With `COc1ccc(S(=O)(=O)NCC(c2cccnc2)N2CCN(C)CC2)cc1OC` (stereo not drawn) the EC50 [1] was > 195 µM (not active).

With `CCN(CC)P(=O)(Nc1ccc(C)cc1Br)c1ccc(N(C)C)cc1NC(=O)c1ccco1` (stereo not drawn) the EC50 [2] was 2.27 µM (active) and the EC50 [3] was > 60 µM (inconclusive).

For `Cc1ccc(NC(=O)CCN2CCCCC2)cc1`, the EC50 [1] was 4.53 µM (active).

For `Cc1ccc(-n2c(O)cnc2Nc2nc(C)cc(C)n2)cc1`, the AC50 (Cytochrome P450 3A4) was 31.6 µM (inconclusive).

For `COc1ccc(N2C(=O)CC(c3ccc(OC(C)C)cc3)C2=O)cc1` (stereo not drawn), the EC50 [1] was > 195 µM (not active).

With `C=CCOc1ccccc1CN1CCCC(CCC(=O)N(C)CCc2ccccn2)C1` (stereo not drawn) the EC50 [2] was 0.412 µM (active) and the EC50 [3] was > 60 µM (not active).

In the case of `CN1/C(=C\C(=O)Nc2ccc(Cl)cc2)C(C)(C)c2ccccc21`, the EC50 [4] was 9.32 µM (active), the EC50 (Streptokinase A) was > 150 µM (not active) and the EC50 (Streptococcus) was 11.5 µM (active).

For `C/C(=N\OC(=O)NC(C)C)c1sc(-c2ccc(Cl)cc2)nc1C`, the AC50 (Cytochrome P450 3A4) was 31.6 µM (inconclusive).

For `CC(Sc1nnnn1C)C(=O)Nc1ccc(Oc2ccccc2)cc1` (stereo not drawn), the EC50 [1] was > 195 µM (not active).

For `C=CCn1c(SCN2C(=O)c3ccccc3C2=O)nc2ccc(Cl)cc2c1=O`, the AC50 (INS1) was 7.25 µM (active).

In the case of `Cc1ccc(S(=O)(=O)N(C)c2ccccc2C(=O)NC2CCCC2)cc1`, the EC50 [1] was > 195 µM (not active).

With `CCOc1cc(C(=O)NCc2ccccc2)ccc1OCC(=O)N1CCOCC1` the EC50 [1] was > 195 µM (not active).

In the case of `O=C(CCc1nnc2ccc(N3CCC4(CC3)OCCO4)nn12)NCc1ccc(F)cc1`, the EC50 [1] was > 195 µM (not active).

In the case of `C/C(=N/NC(=S)Nc1cccc(C)c1)c1cccc([N+](=O)[O-])c1`, the EC50 [2] was 1.63 µM (active) and the EC50 [3] was > 60 µM (not active).

With `CO[C@H]1COC(=O)C/C=C\[C@@H](C)COC(=O)[C@@H](CCSC)NC(=O)C/C=C\[C@@H]1C` the AC50 (Cytochrome P450 3A4) was 3.98 µM (inconclusive) and 5.01 µM (inconclusive).

For `O=C(O)CC1SC(=O)N(Cc2ccccc2)C1=O` (stereo not drawn), the EC50 [1] was > 195 µM (not active).

With `NC(=O)c1ccsc1NC(=O)C1CCCCC1` the EC50 [1] was > 195 µM (not active).
